Test results reported in PubChem BioAssay AID184 (DTP/NCI, 2004).
“And” between values parts separate entries of the source, which are not always exact repeats. Equal entries are not always repeated. Inconclusive results and toxic doses are left out. Rule for the calls: active = survival T/C of 150% or more; inactive = T/C below 125% in these data.

Tested on: BALB/cJ mice, ADJ-PC-6 ip tumor, median survival T/C
Experiment: NCI In Vivo Anticancer Drug Screen. Data for tumor model ADJ-PC-6 (intraperitoneal) in BALB/cJ mice
Details: endpoint: median survival time, higher = longer survival
Procedure: The antitumor activity of compounds was measured in mice bearing transplantable tumors. Survival or tumor size were measured and the results are expressed as the measurement made in the treated group (T) divided by the measurement made in the vehicle treated control group (C). The tumor model used in this assay is ADJ-PC-6 (intraperitoneal) in BALB/cJ mice

[1] = dose: 5.0 mg/kg/injection, schedule: Q04DX003 (ip), vehicle: saline with Tween-80
[2] = dose: 20.0 mg/kg/injection, schedule: Q04DX003 (ip), vehicle: saline with Tween-80

Measured: T/C

CN(C)/N=N/c1nc[nH]c1C(N)=O
inactive: dose: 50.0 mg/kg/injection, schedule: Q01DX009 (ip), vehicle: saline with Tween-80 99 % of control | dose: 100.0 mg/kg/injection, schedule: Q01DX009 (ip), vehicle: saline with Tween-80 110 % of control | dose: 200.0 mg/kg/injection, schedule: Q01DX009 (ip), vehicle: saline with Tween-80 105 % of control
active: dose: 50.0 mg/kg/injection, schedule: Q04DX003 (ip), vehicle: saline with Tween-80 335 % of control and 471 % of control | dose: 200.0 mg/kg/injection, schedule: Q04DX003 (ip), vehicle: Klucel (hydroxypropylcellulose) (HPC) 216 % of control and 275 % of control | dose: 200.0 mg/kg/injection, schedule: Q04DX003 (ip), vehicle: saline with Tween-80 335 % of control and 471 % of control | dose: 400.0 mg/kg/injection, schedule: Q04DX003 (ip), vehicle: Klucel (hydroxypropylcellulose) (HPC) 275 % of control and 369 % of control | dose: 400.0 mg/kg/injection, schedule: Q04DX003 (ip), vehicle: saline with Tween-80 227 % of control and 335 % of control and 471 % of control

Nc1nc(F)nc2c1ncn2C1OC(COP(=O)(O)O)C(O)C1O (stereo not given)
inactive: dose: 25.0 mg/kg/injection, schedule: Q01DX009 (ip), vehicle: saline 90 % of control | dose: 50.0 mg/kg/injection, schedule: Q01DX009 (ip), vehicle: saline 91 % of control | dose: 100.0 mg/kg/injection, schedule: Q01DX009 (ip), vehicle: saline 104 % of control

COc1cc2c(c(OC)c1OC)-c1ccc(OC)c(=O)cc1[C@@H](NC(C)=O)CC2
inactive: dose: 0.05 mg/kg/injection, schedule: Q01DX009 (ip), vehicle: Klucel (hydroxypropylcellulose) (HPC) 99 % of control | dose: 0.1 mg/kg/injection, schedule: Q01DX009 (ip), vehicle: Klucel (hydroxypropylcellulose) (HPC) 88 % of control | dose: 0.2 mg/kg/injection, schedule: Q01DX009 (ip), vehicle: Klucel (hydroxypropylcellulose) (HPC) 102 % of control | dose: 0.4 mg/kg/injection, schedule: Q01DX009 (ip), vehicle: Klucel (hydroxypropylcellulose) (HPC) 108 % of control

CC(=O)O[C@H]1C(=O)[C@@]2(C)[C@H]([C@H](OC(=O)c3ccccc3)[C@]3(O)C[C@H](OC(=O)[C@H](O)[C@@H](NC(=O)c4ccccc4)c4ccccc4)C(C)=C1C3(C)C)[C@]1(OC(C)=O)CO[C@@H]1C[C@@H]2O
inactive: dose: 0.75 mg/kg/injection, schedule: Q01DX009 (ip), vehicle: Klucel (hydroxypropylcellulose) (HPC) 102 % of control | dose: 1.56 mg/kg/injection, schedule: Q01DX009 (ip), vehicle: Klucel (hydroxypropylcellulose) (HPC) 118 % of control | dose: 3.0 mg/kg/injection, schedule: Q01DX009 (ip), vehicle: Klucel (hydroxypropylcellulose) (HPC) 112 % of control | dose: 3.12 mg/kg/injection, schedule: Q01DX009 (ip), vehicle: Klucel (hydroxypropylcellulose) (HPC) 112 % of control | dose: 6.0 mg/kg/injection, schedule: Q01DX009 (ip), vehicle: Klucel (hydroxypropylcellulose) (HPC) 121 % of control | dose: 12.0 mg/kg/injection, schedule: Q01DX009 (ip), vehicle: Klucel (hydroxypropylcellulose) (HPC) 124 % of control

CCCCCCCC(=O)N/N=C(\CO)[C@]1(O)Cc2c(O)c3c(c(O)c2[C@@H](OC2CC(N)C(O)C(C)O2)C1)C(=O)c1c(OC)cccc1C3=O (stereo not given in full)
active: dose: 5.0 mg/kg/injection, schedule: Q04DX003 (ip), vehicle: saline 165 % of control | dose: 10.0 mg/kg/injection, schedule: Q04DX003 (ip), vehicle: saline 242 % of control | dose: 20.0 mg/kg/injection, schedule: Q04DX003 (ip), vehicle: saline 180 % of control | dose: 40.0 mg/kg/injection, schedule: Q04DX003 (ip), vehicle: saline 226 % of control
inactive: dose: 80.0 mg/kg/injection, schedule: Q04DX003 (ip), vehicle: saline 118 % of control

ClCC[N+]12CC[N+](CCCl)(CC1)C2
inactive: dose: 10.0 mg/kg/injection, schedule: Q01DX009 (ip), vehicle: saline 88 % of control and 96 % of control and 111 % of control | dose: 20.0 mg/kg/injection, schedule: Q01DX009 (ip), vehicle: saline 100 % of control and 103 % of control | dose: 40.0 mg/kg/injection, schedule: Q01DX009 (ip), vehicle: saline 106 % of control | dose: 80.0 mg/kg/injection, schedule: Q01DX009 (ip), vehicle: saline 107 % of control and 113 % of control (2×) | dose: 160.0 mg/kg/injection, schedule: Q01DX009 (ip), vehicle: saline 96 % of control and 102 % of control and 103 % of control

CO[C@H](C(=O)[C@@H](O)[C@@H](C)O)[C@@H]1Cc2cc3cc(OC4CC(OC5CC(O)C(O)C(C)O5)C(O)C(C)O4)c(C)c(O)c3c(O)c2C(=O)[C@H]1OC1CC(OC2CC(OC3CC(C)(O)C(O)C(C)O3)C(O)C(C)O2)C(O)C(C)O1 (stereo not given in full)
inactive: dose: 0.13 mg/kg/injection, schedule: Q04DX003 (ip), vehicle: clinical formulation 104 % of control | dose: 0.25 mg/kg/injection, schedule: Q04DX003 (ip), vehicle: clinical formulation 108 % of control | dose: 125.0 micrograms/kg/injection, schedule: Q04DX003 (ip), vehicle: saline 100 % of control

O=C(O)CCCc1ccc(N(CCCl)CCCl)cc1
inactive: dose: 1.25 mg/kg/injection, schedule: Q04DX003 (ip), vehicle: saline with Tween-80 106 % of control | dose: 2.0 mg/kg/injection, schedule: Q04DX003 (ip), vehicle: saline with Tween-80 102 % of control | dose: 2.5 mg/kg/injection, schedule: Q04DX003 (ip), vehicle: saline with Tween-80 105 % of control | dose: 4.0 mg/kg/injection, schedule: Q04DX003 (ip), vehicle: saline with Tween-80 102 % of control | [1] 105 % of control | dose: 8.0 mg/kg/injection, schedule: Q04DX003 (ip), vehicle: saline with Tween-80 122 % of control
active: dose: 16.0 mg/kg/injection, schedule: Q04DX003 (ip), vehicle: saline with Tween-80 173 % of control | [2] 260 % of control | dose: 32.0 mg/kg/injection, schedule: Q04DX003 (ip), vehicle: saline with Tween-80 189 % of control

Cc1ncc(CO)c(CO)c1O
inactive: dose: 50.0 mg/kg/injection, schedule: Q01DX014 (sc), vehicle: saline 115 % of control | dose: 100.0 mg/kg/injection, schedule: Q01DX014 (sc), vehicle: saline 99 % of control | dose: 200.0 mg/kg/injection, schedule: Q01DX014 (sc), vehicle: saline 120 % of control | dose: 400.0 mg/kg/injection, schedule: Q01DX014 (sc), vehicle: saline 117 % of control

COc1cccc2c1C(=O)c1c(O)c3c(c(O)c1C2=O)C[C@@](O)(C(C)=O)C[C@@H]3OC1CC(N(Cc2ccccc2)Cc2ccccc2)C(O)C(C)O1 (stereo not given in full)
inactive: [1] 96 % of control | dose: 10.0 mg/kg/injection, schedule: Q04DX003 (ip), vehicle: saline with Tween-80 109 % of control
active: [2] 177 % of control

Nc1nc(=S)c2[nH]cnc2[nH]1
active: dose: 0.5 mg/kg/injection, schedule: Q01DX009 (ip), vehicle: alkali diluted with saline 194 % of control and 239 % of control | dose: 1.0 mg/kg/injection, schedule: Q01DX009 (ip), vehicle: alkali diluted with saline 194 % of control and 267 % of control | dose: 2.0 mg/kg/injection, schedule: Q01DX009 (ip), vehicle: alkali diluted with saline 194 % of control and 267 % of control | dose: 4.0 mg/kg/injection, schedule: Q01DX009 (ip), vehicle: alkali diluted with saline 194 % of control

O=c1[nH]cc(F)c(=O)[nH]1
active: dose: 7.5 mg/kg/injection, schedule: Q04DX003 (ip), vehicle: saline 150 % of control and 471 % of control | dose: 15.0 mg/kg/injection, schedule: Q04DX003 (ip), vehicle: saline 173 % of control and 308 % of control | dose: 30.0 mg/kg/injection, schedule: Q04DX003 (ip), vehicle: saline 150 % of control and 273 % of control and 471 % of control | dose: 60.0 mg/kg/injection, schedule: Q04DX003 (ip), vehicle: saline 193 % of control and 335 % of control and 471 % of control

CC(C)NC(=O)OCc1c(COC(=O)NC(C)C)c(-c2ccc(Cl)c(Cl)c2)n2c1CCC2
active: dose: 3.75 mg/kg/injection, schedule: Q01DX009 (ip), vehicle: saline with Tween-80 235 % of control | dose: 5.0 mg/kg/injection, schedule: Q01DX009 (ip), vehicle: saline with Tween-80 222 % of control | dose: 7.5 mg/kg/injection, schedule: Q01DX009 (ip), vehicle: saline with Tween-80 235 % of control | dose: 10.0 mg/kg/injection, schedule: Q01DX009 (ip), vehicle: saline with Tween-80 222 % of control | dose: 15.0 mg/kg/injection, schedule: Q01DX009 (ip), vehicle: saline with Tween-80 235 % of control | dose: 20.0 mg/kg/injection, schedule: Q01DX009 (ip), vehicle: saline with Tween-80 222 % of control | dose: 30.0 mg/kg/injection, schedule: Q01DX009 (ip), vehicle: saline with Tween-80 235 % of control | dose: 60.0 mg/kg/injection, schedule: Q01DX009 (ip), vehicle: saline with Tween-80 235 % of control

CCC1(O)CC2CN(CCc3c([nH]c4ccccc34)C(C(=O)OC)(c3cc4c(cc3OC)N(C)C3C(O)(C(N)=O)C(O)C5(CC)C=CCN6CCC43C65)C2)C1 (stereo not given) (tested in a mixture with another compound)
inactive: dose: 0.25 mg/kg/injection, schedule: Q04DX003 (ip), vehicle: saline 92 % of control and 100 % of control | dose: 0.5 mg/kg/injection, schedule: Q04DX003 (ip), vehicle: saline 106 % of control | dose: 1.0 mg/kg/injection, schedule: Q04DX003 (ip), vehicle: saline 102 % of control
115 % of control and 235 % of control: dose: 2.0 mg/kg/injection, schedule: Q04DX003 (ip), vehicle: saline
